Our source for the Adhesion rate values is US20240115488A1, “COMPOSITION FOR ORAL CAVITY CARE” (ICHIMARU PHARCOS CO., LTD., priority 2021, published 2024).

Read-outs that look alike come from different tables or passages of the source.

This assay concerns Streptococcus mutans (NBRC13955). In kind it is cell-based. The settings on record: Cont. group = 100.

Protocol: The Streptococcus mutans was cultured in Todd-Hewitt Broth at 37° C. overnight (approximately 16 hours), and proliferated until the absorbance OD660 measured at 660 nm reached to a value in the range from 0.8 to 1.4. The Streptococcus mutans proliferated was used. Based on the absorbance measured, the Streptococcus mutans was diluted with PBS such that OD660 was 0.125, to prepare a bacterial culture to be used in the following test.
The Codium fragile extract liquid was diluted with PBS to have a concentration of 1%, and then used in the following test.
Each antibacterial agent used in the test was prepared to have a concentration that was two times a test concentration for mixing of the antibacterial agent with the Codium fragile extract liquid, a fraction having a predetermined molecular weight, or PBS at 1:1.
As a CPC solution, a stock solution (2% CPC) was obtained by dissolving 0.2 g of CPC in 10 mL of ethanol solution. This solution was diluted 20-fold with purified water to prepare a 0.1% CPC (5% ethanol) solution. This solution was further diluted with a 5% ethanol solution to prepare 0.05% CPC (5% ethanol) and 0.02% CPC (5% ethanol).
As a benzalkonium chloride solution, a stock solution (2% benzalkonium chloride) was obtained by dissolving 0.2 g of benzalkonium chloride in 10 mL of ethanol solution. This solution was diluted 5-fold with ethanol to prepare an ethanol solution of 0.4% benzalkonium chloride solution. This solution was diluted 20-fold with purified water to prepare 0.02% benzalkonium chloride (5% ethanol). This was further diluted 2-fold with a 5% ethanol solution to prepare a 0.01% benzalkonium chloride (5% ethanol) solution. This solution was diluted 2 times with a 5% ethanol solution to prepare a 0.005% benzalkonium chloride (5% ethanol) solution.
A 20% aqueous chlorhexidine solution was used as an undiluted solution of chlorhexidine solution. The chlorhexidine solution was diluted 20-fold with ethanol and purified water to prepare a 0.1% chlorhexidine (5% ethanol) solution. This solution was further diluted 5-fold with a 5% ethanol solution to prepare a 0.02% chlorhexidine (5% ethanol) solution. This solution was further diluted 10-fold with 5% ethanol to prepare a 0.002% chlorhexidine (5% ethanol) solution.
As an IPMP solution, a stock solution (4% IPMP) was obtained by dissolving 0.4 g of IPMP in 10 mL of ethanol solution. This solution was diluted 20-fold with ethanol and purified water to prepare a 0.2% IPMP (20% ethanol) solution. This solution was further diluted 2-fold with 20% ethanol to prepare a 0.1% IPMP (20% ethanol) solution. This solution was further diluted with 20% ethanol to prepare a 0.04% IPMP (20% ethanol) solution.
Two or more hours after toothbrushing, saliva was collected. Stimulated saliva secreted by mastication of Parafilm was collected, and then centrifuged at 4° C. and 2,000×g for 30 minutes. A supernatant was filtered with suction through a cellulose mixed ester membrane filter (0.1 μm, 90 mm), and the saliva was diluted with PBS to have an appropriate concentration.
100 μL of the human saliva prepared as describe above was added to a 96-well multiplate (made from polystyrene, MultiSorp, manufactured by Thermo Fisher Scientific Inc.), the multiplate was sealed, and incubation was carried out at 37° C. for 1 hour. Each well was then cleaned twice with 300 μL of PBS, 100 μL of each of the samples described above was added, the multiplate was sealed, and incubation was carried out at 37° C. for 1 hour. Subsequently, the liquid was discarded from each of the wells, the wells were cleaned twice with 300 μL of PBS, and 100 μL of the bacterial culture prepared such that OD660 was 0.125 was added to each well.

With `[H]/N=C(\N/C(=N/[H])NCCCCCCNC(=N)NC(=N)Nc1ccc(Cl)cc1)Nc1ccc(Cl)cc1` [chlorhexidine], the Adhesion rate by setting is: (0.010 (w/v %) chlorhexidine, FIG. 3) 85.9; (0.025 (w/v %) chlorhexidine, FIG. 3) 63.3; (0.050 (w/v %) chlorhexidine, FIG. 3) 62.4.
With `CCCCCCCCCCCCCCCC[n+]1ccccc1` [CPC, cetylpyridinium chloride], the Adhesion rate is reported as 92.6 (0.010 (w/v %) CPC, relative value, FIG. 1); 93.4 (0.025 (w/v %) CPC, relative value, FIG. 1); 98.9 (0.050 (w/v %) CPC, relative value, FIG. 1).
For the molecule `Cc1cc(O)ccc1C(C)C` [IPMP, 3-methyl-4-isopropyl methylphenol], the Adhesion rate amounted to 91.5 (0.020 (w/v %) IPMP, FIG. 4); 84.3 (0.050 (w/v %) IPMP, FIG. 4); 70.7 (0.100 (w/v %) IPMP, FIG. 4).
As to benzalkonium chloride, the Adhesion rate (0.010 (w/v %) benzalkonium chloride, FIG. 2) is listed as 103; the Adhesion rate (0.025 (w/v %) benzalkonium chloride, FIG. 2) is 98.4; the Adhesion rate (0.050 (w/v %) benzalkonium chloride, FIG. 2) is 93.8.
